Experiments:
[1] = tested on: maximum electroshock seizure (MES) model; assay: Maximum electroshock seizure (MES) model test; type: in vivo, mice; settings: for responders at 100 mg/kg / responders at 50 mg/kg: Mus musculus, po, 1 h, Slc: ddY male mice, 3 per group, electrical stimulation 1 hour after administration, inhibition of hind limb extension, read-out: MES (positive number/tested number) (converted); for responders at 100 mg/kg: 100 mg/kg oral; for responders at 50 mg/kg: 50 mg/kg oral
Method in brief: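 Tonic hind-limb extension was elicited by corneal electroshock (60 Hz, 25 mA, 0.2 s) 1 h after oral dosing. Test compounds were given at 50 or 100 mg/kg to groups of 3 male Slc: ddY mice (20-30 g), vehicle controls receiving 0.5% tragacanth or 0.5% methylcellulose solution.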

[2] = tested on: subcutaneously pentetrazol-injected model (scPTZ); assay: Subcutaneously pentetrazol-injected model (scPTZ) test; type: in vivo, mice; settings: pentetrazol 85 mg/kg s.c. after 1 hour; for responders at 100 mg/kg / responders at 50 mg/kg: Mus musculus, po, 1 h, Slc: ddY male mice, 3 per group, observed 30 minutes for clonic convulsion, read-out: scPTZ (positive number/tested number) (converted); for responders at 100 mg/kg: 100 mg/kg oral; for responders at 50 mg/kg: 50 mg/kg oral
Method in brief: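 Pentetrazol (85 mg/kg, s.c.) was injected one hour after oral test compound at 50 or 100 mg/kg in groups of three male Slc:ddY mice weighing 20-30 g; vehicle controls got 0.5% tragacanth or 0.5% methylcellulose.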

Structure (SMILES): CNC(=O)Cc1ccccc1-c1ccc(Cl)cc1C(F)(F)F [Example 105]
- responders at 100 mg/kg [1]: 0%
- responders at 100 mg/kg [2]: 66.7%

Structure (SMILES): N#Cc1ccc(-c2ccccc2CC(N)=O)c(F)c1 [Example 106]
- responders at 100 mg/kg [1]: 0%
- responders at 100 mg/kg [2]: 66.7%

Structure (SMILES): N#Cc1ccc(Cl)cc1-c1ccccc1CC(N)=O [Example 107]
- responders at 100 mg/kg [1]: 0%
- responders at 100 mg/kg [2]: 100%

Structure (SMILES): N#Cc1c(-c2ccccc2CC(N)=O)cccc1C(F)(F)F [Example 108]
- responders at 100 mg/kg [1]: 0%
- responders at 100 mg/kg [2]: 66.7%

Structure (SMILES): NC(=O)Cc1cc(Cl)ccc1-c1ccc(Cl)cc1 [Example 109, 2-(4,4′-dichlorobiphenyl-2-yl)acetamide]
- responders at 50 mg/kg [1]: 100%
- responders at 100 mg/kg [1]: 100%
- anticonvulsant action in maximum electroshock seizure (MES) model test ([1]; mice, oral 50 or 100 mg/kg, 1 hour after administration): anticonvulsant action was observed
- responders at 50 mg/kg [2]: 66.7%
- responders at 100 mg/kg [2]: 100%
- anticonvulsant action in subcutaneously pentetrazol-injected model (scPTZ) test ([2]; mice, oral 50 or 100 mg/kg): anticonvulsant action was observed

Structure (SMILES): NC(=O)Cc1cc(F)c(F)cc1-c1ccccc1 [Example 110]
- responders at 50 mg/kg [1]: 0%
- responders at 100 mg/kg [1]: 66.7%
- responders at 100 mg/kg [2]: 33.3%

Structure (SMILES): Cc1ccc(-c2ccccc2)c(CC(N)=O)c1 [Example 111]
- responders at 100 mg/kg [1]: 0%
- responders at 50 mg/kg [2]: 33.3%
- responders at 100 mg/kg [2]: 66.7%

Structure (SMILES): NC(=O)Cc1ccc([N+](=O)[O-])cc1-c1ccccc1 [Example 112]
- responders at 100 mg/kg [1]: 33.3%
- responders at 50 mg/kg [2]: 33.3%
- responders at 100 mg/kg [2]: 66.7%

Structure (SMILES): NC(=O)Cc1ccc([N+](=O)[O-])cc1-c1ccccc1F [Example 113, 2-(2′-fluoro-5-nitrobiphenyl-2-yl)acetamide]
- responders at 50 mg/kg [1]: 66.7%
- responders at 100 mg/kg [1]: 100%
- responders at 100 mg/kg [2]: 33.3%

Structure (SMILES): NC(=O)Cc1cc(F)ccc1-c1ccc(F)cc1 [Example 114, 2-(4,4′-difluorobiphenyl-2-yl)acetamide]
- responders at 50 mg/kg [1]: 100%
- responders at 100 mg/kg [1]: 100%
- responders at 100 mg/kg [2]: 33.3%

Structure (SMILES): CNC(=O)Cc1cc(F)ccc1-c1ccc(F)cc1 [Example 115, 2-(4,4′-difluorobiphenyl-2-yl)-N-methylacetamide]
- responders at 50 mg/kg [1]: 100%
- responders at 100 mg/kg [1]: 100%
- responders at 100 mg/kg [2]: 0%

Structure (SMILES): NC(=O)Cc1cc(C(F)(F)F)ccc1-c1ccccc1 [Example 116]
- responders at 100 mg/kg [1]: 0%
- responders at 50 mg/kg [2]: 33.3%
- responders at 100 mg/kg [2]: 66.7%

Structure (SMILES): CNC(=O)Cc1cc(C(F)(F)F)ccc1-c1ccccc1 [Example 117]
- responders at 100 mg/kg [1]: 0%
- responders at 50 mg/kg [2]: 33.3%
- responders at 100 mg/kg [2]: 66.7%

Structure (SMILES): NC(=O)Cc1c(F)cccc1-c1ccccc1 [Example 118, 2-(3-fluorobiphenyl-2-yl)acetamide]
- responders at 50 mg/kg [1]: 100%
- responders at 100 mg/kg [1]: 100%
- responders at 100 mg/kg [2]: 33.3%

Structure (SMILES): CNC(=O)Cc1c(F)cccc1-c1ccccc1 [Example 119, 2-(3-fluorobiphenyl-2-yl)-N-methylacetamide]
- responders at 50 mg/kg [1]: 100%
- responders at 100 mg/kg [1]: 100%
- responders at 100 mg/kg [2]: 0%

Structure (SMILES): NC(=O)Cc1ccc(F)cc1-c1cccc(F)c1 [Example 120]
- responders at 50 mg/kg [1]: 0%
- responders at 100 mg/kg [1]: 100%
- responders at 100 mg/kg [2]: 33.3%

Structure (SMILES): CNC(=O)Cc1ccc(F)cc1-c1cccc(F)c1 [Example 121]
- responders at 50 mg/kg [1]: 0%
- responders at 100 mg/kg [1]: 100%
- responders at 100 mg/kg [2]: 33.3%

Structure (SMILES): NC(=O)Cc1ccc(F)cc1-c1ccc(F)cc1 [Example 122]
- responders at 100 mg/kg [1]: 0%
- responders at 50 mg/kg [2]: 0%
- responders at 100 mg/kg [2]: 66.7%

Structure (SMILES): NC(=O)Cc1ccc(Cl)cc1-c1ccccc1 [Example 123]
- responders at 100 mg/kg [1]: 100%
- responders at 100 mg/kg [2]: 33.3%

Structure (SMILES): CNC(=O)Cc1ccc(Cl)cc1-c1ccccc1 [Example 124, 2-(5-chlorobiphenyl-2-yl)-N-methylacetamide]
- responders at 50 mg/kg [1]: 0%
- responders at 100 mg/kg [1]: 100%
- responders at 50 mg/kg [2]: 0%
- responders at 100 mg/kg [2]: 100%

Structure (SMILES): NC(=O)Cc1ccc(Cl)cc1-c1ccccc1F [Example 125, 2-(5-chloro-2′-fluorobiphenyl-2-yl)acetamide]
- responders at 50 mg/kg [1]: 66.7%
- responders at 100 mg/kg [1]: 100%
- responders at 50 mg/kg [2]: 33.3%
- responders at 100 mg/kg [2]: 66.7%

Reference: patent publication US20120142771A1, “BIPHENYLACETAMIDE DERIVATIVE” (Dainippon Sumitomo Pharma Co., Ltd., priority 2008, published 2012)
